# Read-outs that look alike come from different tables or passages of the source.
# Tests used:
# [1] = JNT-517 plasma pharmacokinetics in healthy volunteers; type: in vivo, human; details: for half-life / Tmax: human, plasma, oral; for half-life: read-out: Mean T1/2 (converted); for Tmax: min, read-out: Median Tmax
# Experimental: The plasma pharmacokinetic profile of JNT-517 was measured using a qualified high-performance LC-MS assay. Blood samples for PK analysis were taken before dosing, and 0.5, 1, 1.5, 2, 2.5, 3, 4, 6, 8, 10, 12, 24, 36, […], and 72 hours after dosing in the SAD study. For the MAD study, blood samples for PK analysis were taken before dosing, and 0.5, 1, 1.5, 2, 2.5, 3, 4, 6, 8, 10, 12, and 24 hours after dosing in the case of once-daily dosing or 0.5, 1, 1.5, 2, 2.5, 3, 4, 6, 8.5, 9 9.5, 10, 10.5, 11, 12, 14, 16, and 24 hours after dosing in the case of twice daily dosing. In addition, predose samples were collected throughout days 3–13. The resulting concentration-time data was evaluated using standard noncompartmental analysis methods, and PK parameters were calculated (Cmax, Tmax, T1/2, AUC0-inf, CL/F, Vd/F).
# IC50 values for transport inhibition in cells overexpressing SLC6A19 and TMEM27 were calculated using a 4-parameter logistic regression in Collaborative Drug Discovery (CDD). Reported IC50 values are geometric means of 4–6 independent experiments. For postmortem intestinal transport assays, single outliers of quadruplicate replicates were excluded from the calculation if a signal value’s distance to the mean exceeded 35% of the signal average. The IC50 values of individual experiments were calculated with a 3- or 4-parameter logistic regression using GraphPad Prism 9. The reported IC50 value represents the geometric mean of n = 5 experiments from 3 individual donors. Statistical comparison of urinary Phe excretion in Pah^enu2 mice treated with vehicle or JN-170 was conducted using 1-way analysis of variance (ANOVA) with Tukey’s post hoc comparison. Statistical analysis of baseline-adjusted plasma Phe in mice treated with vehicle or JN-170 was determined by 2-way ANOVA with Dunnett’s post hoc comparison. All statistical analyses were performed using GraphPad Prism 9. For clinical studies, group sizes were not determined based on statistical power calculations. Statistical significance of pharmacodynamic results was not assessed. Values are reported as mean (urinary Phe excretion, T1/2, Cl/F), geometric mean (Cmax/D, AUC0-inf/D), or median (Tmax).
# healthy volunteers = assay: Plasma amino acid levels in healthy volunteers (MAD); type: in vivo, human
# Experimental: The effect of JNT-517 on plasma and urine AA levels was measured using an ultra-performance liquid chromatography mass spectrometry assay following 6-aminoquinolyl-N-hydroxysuccinimidyl carbamate (AQC) derivatization. For the SAD study, plasma samples were collected on day –1 and day 1 predose, as well as 24, 48, and 72 hours after dosing. A first morning void urine sample on Days –1 and 1 predose, as well as 2 pooled urine samples 0–8 hours after and 8–24 hours after dose were also collected following study drug administration. For the MAD study, plasma samples were collected on day –1, 1, 7, and 14 predose, as well as day 14, 24 hours after dosing. A first morning void urine samples on day –1, 1, 7, and 14 as well as 2 pooled urine samples 0–8 hours and 8–24 hours after dose on days 1, 7, and 14 were also collected following JNT-517 or placebo administration. Study participants in SAD and MAD cohorts were dosed in the morning following an overnight fast of at least 8 hours and were provided the following meals in relation to dosing times: breakfast after the morning dose, lunch 4 hours after morning dose, optional snack in the afternoon 8 hours after the morning dose and after the second dose for MAD cohorts dosed BID, dinner approximately 10 hours after the morning dose and at least 2 hours after the second dose for MAD cohorts dosed BID. Predose plasma amino acids were drawn after a minimum of 8 hours fasting overnight and after-dose levels were drawn after > 1.5 hours fasting. Resulting plasma and urine amino acid concentration measurements, as well a total amino acid excretion over a time period were summarized using appropriate descriptive statistics and compared with either predose levels or placebo-dose values. Tryptophan was not included in the amino acid panel due to analytical limitations.
structure (smiles),measurement,setting,value
NC(=O)N1CCC[C@@H](N(C(=O)NCc2ccc(OC(F)(F)F)cc2F)C2CC2)C1 [JNT-517],plasma exposure exceeding the in vitro IC75,[1]; MAD 150 mg QD,approximately 24 hours
same,accumulation between days 1 and 14,"[1]; MAD cohorts, dose levels tested",no accumulation was observed
same,Geomean Cmax/D,"[1]; SAD 10 mg, %CV 23.6",45.9 ng/mL/mg
same,Geomean AUC0-inf/D,"[1]; SAD 10 mg, %CV 66.0",340 ng·h/mL/mg
same,Mean Cl/F,"[1]; SAD 10 mg, SD 1.75",3.36 L/h
same,Geomean Cmax/D,"[1]; SAD 25 mg, %CV 25.5",48.5 ng/mL/mg
same,Geomean AUC0-inf/D,"[1]; SAD 25 mg, %CV 59.0",402 ng·h/mL/mg
same,Mean Cl/F,"[1]; SAD 25 mg, SD 1.27",2.78 L/h
same,Geomean Cmax/D,"[1]; SAD 50 mg, %CV 14.8",44.6 ng/mL/mg
same,Geomean AUC0-inf/D,"[1]; SAD 50 mg, %CV 34.5",348 ng·h/mL/mg
same,Mean Cl/F,"[1]; SAD 50 mg, SD 0.873",3.00 L/h
same,Geomean Cmax/D,"[1]; SAD 100 mg, %CV 13.0",35.0 ng/mL/mg
same,Geomean AUC0-inf/D,"[1]; SAD 100 mg, %CV 42.4",239 ng·h/mL/mg
same,Mean Cl/F,"[1]; SAD 100 mg, SD 2.11",4.52 L/h
same,Geomean Cmax/D,"[1]; SAD 170 mg, %CV 24.9",32.9 ng/mL/mg
same,Geomean AUC0-inf/D,"[1]; SAD 170 mg, %CV 33.6",269 ng·h/mL/mg
same,Mean Cl/F,"[1]; SAD 170 mg, SD 1.15",3.87 L/h
same,half-life,"[1]; SAD 10 mg, %CV 50.2",382 min
same,Tmax,"[1]; SAD 10 mg, max 0.5, 1.07",45 min
same,half-life,"[1]; SAD 25 mg, %CV 50.7",467 min
same,Tmax,"[1]; SAD 25 mg, max 0.5, 2.0",60 min
same,half-life,"[1]; SAD 50 mg, %CV 35.4",370 min
same,Tmax,"[1]; SAD 50 mg, max 0.5, 2.0",45 min
same,half-life,"[1]; SAD 100 mg, %CV 31.9",353 min
same,Tmax,"[1]; SAD 100 mg, max 0.5, 1.5",60 min
same,half-life,"[1]; SAD 170 mg, %CV 24.7",362 min
same,Tmax,"[1]; SAD 170 mg, max 0.5, 2.0",45 min
same,exposure above the in vitro IC75,[1]; single 50 mg dose,> 12 h
same,target coverage exceeding the IC75,[1]; single 170 mg dose,approximately 24 hours
same,number of subjects with plasma Alanine below lower limit of normal,"healthy volunteers; MAD 25 mg BID, Post-dose",0
same,number of subjects with plasma Arginine below lower limit of normal,"healthy volunteers; MAD 25 mg BID, Post-dose",0
same,number of subjects with plasma Asparagine below lower limit of normal,"healthy volunteers; MAD 25 mg BID, Post-dose",0
same,number of subjects with plasma Cystine below lower limit of normal,"healthy volunteers; MAD 25 mg BID, Post-dose",5
same,number of subjects with plasma Glutamate below lower limit of normal,"healthy volunteers; MAD 25 mg BID, Post-dose",0
same,number of subjects with plasma Glutamine below lower limit of normal,"healthy volunteers; MAD 25 mg BID, Post-dose",0
same,number of subjects with plasma Glycine below lower limit of normal,"healthy volunteers; MAD 25 mg BID, Post-dose",0
same,number of subjects with plasma Isoleucine below lower limit of normal,"healthy volunteers; MAD 25 mg BID, Post-dose",0
same,number of subjects with plasma Leucine below lower limit of normal,"healthy volunteers; MAD 25 mg BID, Post-dose",0
same,number of subjects with plasma Lysine below lower limit of normal,"healthy volunteers; MAD 25 mg BID, Post-dose",0
same,number of subjects with plasma Methionine below lower limit of normal,"healthy volunteers; MAD 25 mg BID, Post-dose",0
same,number of subjects with plasma Phenylalanine below lower limit of normal,"healthy volunteers; MAD 25 mg BID, Post-dose",0
same,number of subjects with plasma Proline below lower limit of normal,"healthy volunteers; MAD 25 mg BID, Post-dose",0
same,number of subjects with plasma Serine below lower limit of normal,"healthy volunteers; MAD 25 mg BID, Post-dose",0
same,number of subjects with plasma Threonine below lower limit of normal,"healthy volunteers; MAD 25 mg BID, Post-dose",0
same,number of subjects with plasma Tyrosine below lower limit of normal,"healthy volunteers; MAD 25 mg BID, Post-dose",0
same,number of subjects with plasma Valine below lower limit of normal,"healthy volunteers; MAD 25 mg BID, Post-dose",0
same,number of subjects with plasma Alanine below lower limit of normal,"healthy volunteers; MAD 75 mg BID, Post-dose",0
same,number of subjects with plasma Arginine below lower limit of normal,"healthy volunteers; MAD 75 mg BID, Post-dose",0
same,number of subjects with plasma Asparagine below lower limit of normal,"healthy volunteers; MAD 75 mg BID, Post-dose",0
same,number of subjects with plasma Cystine below lower limit of normal,"healthy volunteers; MAD 75 mg BID, Post-dose",0
same,number of subjects with plasma Glutamate below lower limit of normal,"healthy volunteers; MAD 75 mg BID, Post-dose",0
same,number of subjects with plasma Glutamine below lower limit of normal,"healthy volunteers; MAD 75 mg BID, Post-dose",0
same,number of subjects with plasma Glycine below lower limit of normal,"healthy volunteers; MAD 75 mg BID, Post-dose",0
same,number of subjects with plasma Isoleucine below lower limit of normal,"healthy volunteers; MAD 75 mg BID, Post-dose",0
same,number of subjects with plasma Leucine below lower limit of normal,"healthy volunteers; MAD 75 mg BID, Post-dose",0
same,number of subjects with plasma Lysine below lower limit of normal,"healthy volunteers; MAD 75 mg BID, Post-dose",0
same,number of subjects with plasma Methionine below lower limit of normal,"healthy volunteers; MAD 75 mg BID, Post-dose",0
same,number of subjects with plasma Phenylalanine below lower limit of normal,"healthy volunteers; MAD 75 mg BID, Post-dose",0
same,number of subjects with plasma Proline below lower limit of normal,"healthy volunteers; MAD 75 mg BID, Post-dose",0
same,number of subjects with plasma Serine below lower limit of normal,"healthy volunteers; MAD 75 mg BID, Post-dose",0
same,number of subjects with plasma Threonine below lower limit of normal,"healthy volunteers; MAD 75 mg BID, Post-dose",0
same,number of subjects with plasma Tyrosine below lower limit of normal,"healthy volunteers; MAD 75 mg BID, Post-dose",0
same,number of subjects with plasma Valine below lower limit of normal,"healthy volunteers; MAD 75 mg BID, Post-dose",0
same,number of subjects with plasma Alanine below lower limit of normal,"healthy volunteers; MAD 150 mg QD, Post-dose",0
same,number of subjects with plasma Arginine below lower limit of normal,"healthy volunteers; MAD 150 mg QD, Post-dose",0
same,number of subjects with plasma Asparagine below lower limit of normal,"healthy volunteers; MAD 150 mg QD, Post-dose",0
same,number of subjects with plasma Cystine below lower limit of normal,"healthy volunteers; MAD 150 mg QD, Post-dose",5
same,number of subjects with plasma Glutamate below lower limit of normal,"healthy volunteers; MAD 150 mg QD, Post-dose",0
same,number of subjects with plasma Glutamine below lower limit of normal,"healthy volunteers; MAD 150 mg QD, Post-dose",0
same,number of subjects with plasma Glycine below lower limit of normal,"healthy volunteers; MAD 150 mg QD, Post-dose",0
same,number of subjects with plasma Isoleucine below lower limit of normal,"healthy volunteers; MAD 150 mg QD, Post-dose",0
same,number of subjects with plasma Leucine below lower limit of normal,"healthy volunteers; MAD 150 mg QD, Post-dose",0
same,number of subjects with plasma Lysine below lower limit of normal,"healthy volunteers; MAD 150 mg QD, Post-dose",0
same,number of subjects with plasma Methionine below lower limit of normal,"healthy volunteers; MAD 150 mg QD, Post-dose",0
same,number of subjects with plasma Phenylalanine below lower limit of normal,"healthy volunteers; MAD 150 mg QD, Post-dose",0
same,number of subjects with plasma Proline below lower limit of normal,"healthy volunteers; MAD 150 mg QD, Post-dose",0
same,number of subjects with plasma Threonine below lower limit of normal,"healthy volunteers; MAD 150 mg QD, Post-dose",0
same,number of subjects with plasma Valine below lower limit of normal,"healthy volunteers; MAD 150 mg QD, Post-dose",0
same,number of subjects with plasma Serine below lower limit of normal,"healthy volunteers; MAD 150 mg QD, Post-dose (16.7%)",1
same,number of subjects with plasma Tyrosine below lower limit of normal,"healthy volunteers; MAD 150 mg QD, Post-dose (33.3%)",2

# Source: article PMC11601558, “SLC6A19 inhibition facilitates urinary neutral amino acid excretion and lowers plasma phenylalanine” (JCI Insight, 2024)
